Reference: patent publication US8080549B2, “Endothelin receptor antagonists” (CoNCERT Pharmaceuticals, Inc., priority 2007, dated 2011)
Like-named read-outs stand apart in the source and are kept apart here.

Assays:
[1] = target: T1, CYP3A4 supersomes (Homo sapiens, UniProt P08684); assay: Metabolic stability in CYP3A4 Supersomes; assay type: in vitro ADME; details: for increase of in vitro t1/2 over non-deuterated bosentan: CYP3A4 supersomes, under the assay conditions tested, approximate values; for % Difference: [(deuterated species) − (nondeuterated species)](100)/(nondeuterated species), of Ave t1/2 vs bosentan
T1 construct: purchased BD Gentest
T1 sequence (P08684 whole entry): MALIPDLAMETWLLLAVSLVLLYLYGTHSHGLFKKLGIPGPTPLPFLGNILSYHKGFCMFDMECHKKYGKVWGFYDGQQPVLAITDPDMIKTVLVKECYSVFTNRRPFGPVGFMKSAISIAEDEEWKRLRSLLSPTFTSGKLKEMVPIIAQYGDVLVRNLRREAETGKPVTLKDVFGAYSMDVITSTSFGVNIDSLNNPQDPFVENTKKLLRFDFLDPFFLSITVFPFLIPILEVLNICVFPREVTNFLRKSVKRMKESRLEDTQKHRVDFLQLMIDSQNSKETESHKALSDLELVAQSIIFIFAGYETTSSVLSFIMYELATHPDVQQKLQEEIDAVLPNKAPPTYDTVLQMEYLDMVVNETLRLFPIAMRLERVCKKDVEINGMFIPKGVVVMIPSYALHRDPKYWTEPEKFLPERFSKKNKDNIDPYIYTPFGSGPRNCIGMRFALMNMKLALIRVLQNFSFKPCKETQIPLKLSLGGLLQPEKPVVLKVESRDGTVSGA
Protocol: (§1) Materials: CYP3A4 Supersomes™ were obtained from BD Gentest. β-nicotinamide adenine dinucleotide phosphate, reduced form (NADPH), magnesium chloride (MgCl2), and dimethyl sulfoxide (DMSO) were purchased from Sigma-Aldrich.
(§2) Determination of Metabolic Stability: 7.5 mM stock solutions of test compounds were prepared in DMSO. The 7.5 mM stock solutions were diluted to 50 μM in acetonitrile (ACN). The 1000 pmol/mL CYP3A4 supersomes were diluted to 50 pmol/mL in 0.1 M potassium phosphate buffer, pH 7.4, containing 3 mM MgCl2. The diluted supersomes were added to wells of a 96-well deep-well polypropylene plate in triplicate. 10 μL of the 50 μM test compound was added to the supersomes and the mixture was pre-warmed for 10 minutes. Reactions were initiated by addition of pre-warmed NADPH solution. The final reaction volume was 0.5 mL and contained 40 pmol/mL CYP3A4 supersomes, 1 μM test compound, and 2 mM NADPH in 0.1 M potassium phosphate buffer, pH 7.4, and 3 mM MgCl2. The reaction mixtures were incubated at 37° C. and 50 μL aliquots were removed at 0, 5, 10, 20, and 30 minutes and added to shallow-well 96-well plates which contained 50 μL of ice-cold ACN with internal standard to stop the reactions. The plates were stored at 4° C. for 20 minutes after which 100 μL of water was added to the wells of the plate before centrifugation to pellet precipitated proteins. Supernatants were transferred to another 96-well plate and analyzed for amounts of parent remaining by LC-MS/MS using an Applied Bio-systems API 4000 mass spectrometer.
(§3) Data analysis: The in vitro t1/2s for test compounds were calculated from the slopes of the linear regression of % parent remaining (ln) vs incubation time relationship. • in vitro t1/2=0.693/k • k=−[slope of linear regression of % parent remaining(ln) vs incubation time]
(§4) Data analysis was performed using Microsoft Excel Software.

[2] = target: T2, CYP3A4 (Homo sapiens, UniProt P08684); assay: Metabolic stability in CYP3A4 Supersomes; assay type: in vitro ADME; details: human, recombinant CYP3A4 Supersomes, 1 μM test compound
T2 construct: purchased BD Gentest
T2 sequence (P08684 whole entry): as above
Protocol: as §1, §2, §3, §4

[3] = active metabolite of bosentan; cited from earlier work
[4] = pH 7.4, average of Experiments 1 and 2, CYP3A4 supersomes, read-out: Ave t1/2
[5] = pH 7.4, in vitro half-life, 40 pmol/mL CYP3A4 supersomes, 2 mM NADPH, pH 7.4, 37° C., 0-30 minutes, Experiment 1, read-out: t1/2 (minutes) Experiment 1
[6] = pH 7.4, in vitro half-life, 40 pmol/mL CYP3A4 supersomes, 2 mM NADPH, pH 7.4, 37° C., 0-30 minutes, Experiment 2, read-out: t1/2 (minutes) Experiment 2

| Compound | increase of in vitro t1/2 over non-deuterated bosentan [1] [%] | % Difference [1] [%] | half-life at 1 μM [2, 4] [min] | half-life at 1 μM [2, 5] [min] | half-life at 1 μM [2, 6] [min] | share of the overall pharmaceutical properties of bosentan [3] |
| --- | --- | --- | --- | --- | --- | --- |
| [2H]C([2H])(O)COc1nc(-c2ncccn2)nc(NS(=O)(=O)c2ccc(C(C)(C)C)cc2)c1Oc1ccccc1OC [Compound 104, 4-tert-Butyl-N-(6-(2-hydroxy-2,2-d2-ethoxy)-5-(2-methoxyphenoxy)-2,2′-bipyrimidin-4-yl)benzenesulfonamide] | – | −11.7 | 31.6 | 30.9 | 32.4 | – |
| COc1ccccc1Oc1c(NS(=O)(=O)c2ccc(C(C)(C)C)cc2)nc(-c2ncccn2)nc1OCCO [Bosentan, N[6-(2-hydroxyethoxy)-5-(2-methoxyphenoxy)-2-pyrimidin-2-yl-pyrimidin-4-yl]-4-tert-butyl-benzenesulfonamide, reference compound] | – | – | 35.8 | 34.3 | 37.2 | – |
| [2H]C([2H])([2H])Oc1ccccc1Oc1c(NS(=O)(=O)c2ccc(C(C)(C)C)cc2)nc(-c2ncccn2)nc1OCCO [Compound 102, 4-tert-Butyl-N-(6-(2-hydroxyethoxy)-5-(2-(methoxy-d3)-phenoxy)-2,2′-bipyrimidin-4-yl)benzenesulfonamide] | ~29 | 29.1 | 46.2 | 45.7 | 46.8 | – |
| COc1ccccc1Oc1c(NS(=O)(=O)c2ccc(C(C)(C)CO)cc2)nc(-c2ncccn2)nc1OCCO [hydroxybosentan] | – | – | – | – | – | up to 20% |

More lines, main results first:

| increase of in vitro t1/2 over non-deuterated bosentan [1] [%] | % Difference [1] [%] | half-life at 1 μM [2, 4] [min] | half-life at 1 μM [2, 5] [min] | half-life at 1 μM [2, 6] [min] | Compound | share of the overall pharmaceutical properties of bosentan [3] |
| --- | --- | --- | --- | --- | --- | --- |
| ~15 | 15.1 | 41.2 | 41 | 41.3 | [2H]C([2H])([2H])Oc1ccccc1Oc1c(NS(=O)(=O)c2ccc(C(C([2H])([2H])[2H])(C([2H])([2H])[2H])C([2H])([2H])[2H])cc2)nc(-c2ncccn2)nc1OCCO [Compound 101, 4-(tert-Butyl-d9)-N-(6-(2-hydroxyethoxy)-5-(2-(methoxy-d3)-phenoxy)-2,2′-bipyrimidin-4-yl)benzenesulfonamide] | – |
| ~54 | 54.2 | 55.2 | 53.3 | 57.2 | [2H]C([2H])(O)COc1nc(-c2ncccn2)nc(NS(=O)(=O)c2ccc(C(C([2H])([2H])[2H])(C([2H])([2H])[2H])C([2H])([2H])[2H])cc2)c1Oc1ccccc1OC([2H])([2H])[2H] [Compound 106, 4-(tert-Butyl-d9)-N-(6-(2-hydroxy-2,2-d2-ethoxy)-5-(2-(methoxy-d3)phenoxy)-2,2′-bipyrimidin-4-yl)benzenesulfonamide] | – |
| – | 6.7 | 38.2 | 35.9 | 40.5 | [2H]C([2H])([2H])C(c1ccc(S(=O)(=O)Nc2nc(-c3ncccn3)nc(OCCO)c2Oc2ccccc2OC)cc1)(C([2H])([2H])[2H])C([2H])([2H])[2H] [Compound 103, 4-(tert-Butyl-d9)-N-(6-(-2-hydroxyethoxy)-5-(2-methoxyphenoxy)-2,2′-bipyrimidin-4-yl)benzenesulfonamide] | – |
